assay: gradient 5% acetonitrile 3 min, to 50% in 2 min, to 85% in 15 min, held 3 min, 100 µL/min; settings: column: Zorbax Extend-C18 2.1 x 50 mm; eluents: water / acetonitrile, 0.1% formic acid
Procedure, shortened: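 Pure standards were run in mixtures of ~100 molecules by HPLC coupled to a quadrupole time-of-flight mass spectrometer. The column was a Zorbax Extend-C18 (2.1 × 50 mm, 1.8 μm) at 100 μL/min, with water and acetonitrile each containing 0.1% formic acid, in positive and negative ionization mode. Dead and dwell volumes were 40 μL and 900 μL. Retention time was taken from computationally picked adduct peaks, each manually inspected, with data collected over 3 months.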

Compound	RP-LC retention time [s]
Cc1cccc(-c2nc(N3CC4(C)CC3CC(C)(C)C4)c3ccccc3n2)c1 (stereo not given)	1060
COc1ccc(-c2nc(NCCN3CCC(C)CC3)c3ccccc3n2)cc1	580
COc1ccc(-c2ncc(C(=O)Nc3ccc(OC)cc3OC)c(-c3ccncc3)n2)cc1	839
CC(C)(C)c1cc(C(=O)NC2CCCC2)nc2ccnn12	1150
FC1(F)C[C@@H](CN2CCOCC2)N(Cc2cn[nH]c2-c2ccccc2)C1	765
CCCc1nc(-c2c(C)cc(C)nc2NC(=O)c2ccc(C)cc2)no1	893
Cc1ccc(-c2cn3ccn(-c4cccc(F)c4)c(=O)c3n2)c(C)c1	900
Cc1ccc(NC(=O)N2CCCCC2)cc1[N+](=O)[O-]	916
COc1ccccc1-n1ccn2cc(-c3ccc4c(c3)OCO4)nc2c1=O	776
Cn1nc(-c2cccc(NC(=O)C3c4ccccc4Oc4ccccc43)c2)ccc1=O	814
CC1CN=C2C=C(N3CCN(C(=O)NCc4cccc(F)c4)CC3)N=CN21 (stereo not given)	605
CCC(=O)Nc1ccc(CCc2nc3ccc(C(=O)NCc4ccc5c(c4)OCO5)cc3[nH]2)cc1	644
COc1ccc(NC(=O)c2cc(C(C)(C)C)n3nccc3n2)cc1OC	1110
Cc1ccc(Nc2nc(-c3ccc(F)cc3F)cs2)nc1	1070
Cc1cc(C)n2c(Nc3c(C)cccc3C)c(-c3ccc(Cl)cc3)nc2n1	815
Cc1nnc(NC(=O)c2nc(-c3cnccn3)no2)s1	598
COc1ccc(-c2nc3cccc(C)n3c2Nc2ccccc2C)cc1	773
O=C(Nc1ccc2c(c1)OCCO2)N1CCC2(CC1)CC(N1CCOCC1)CCO2 (stereo not given)	572
Cc1noc(-c2cccc(OC3CN(C(=O)Cc4ccsc4)C3)c2)n1	857
CCCNS(=O)(=O)c1cc(-c2nnc(-c3ccccc3)o2)ccc1OC	891

Compound	RP-LC retention time [s]
CCOc1ccccc1-c1nc(CN(c2ccccc2OC)S(=O)(=O)c2ccccc2C)c(C)o1	1250
CC(C)(C)c1ccc(-c2nc(NCCCN3CCOCC3)c3ccccc3n2)cc1	595
CN(Cc1ccccc1)c1ccc(-c2noc(CN3CCSCC3)n2)cn1	930
Cc1cc(C)cc(NC(=O)Cn2cc(-c3noc(-c4ccncc4)n3)nc2C)c1	735
CCCc1noc(-c2ccc(-n3cnc(C(=O)NC4CCCCC4)c3)nc2)n1	741
Cc1cccc(-c2nc(Cn3nnc(-c4nc(-c5ccccc5)no4)c3C)c(C)o2)c1	1280
CC(C)(C)c1csc(-c2csc(S(=O)(=O)NCC3CCCCC3)c2)n1	1410
Cc1nc2c(NS(=O)(=O)c3ccc(F)cc3)cccn2n1	715
O=C(c1ccc(-c2cccs2)nc1)N1CCN(c2ccc(F)cc2)CC1	950
Cc1nc(N2CCOCC2)c2c(C(=O)NCc3ccc(F)cc3)c(C)oc2n1	702
COc1ccc(C(=O)CSc2nc3ccccc3[nH]2)cc1	647
Cc1ccc(-n2nc(C)c3sc(N4CCCC(C(=O)NC5CCCC5)C4)nc32)cc1 (stereo not given)	1150
Cc1nc(N(C)C)cc(N2CCN(C(=O)c3cccc(Br)c3)CC2)n1	656
COc1ccc2[nH]cc(CCNC(=O)Cn3nc(C)c4c(C)onc4c3=O)c2c1	698
CCC(c1cccs1)N1C(=O)[C@H]2CN(S(=O)(=O)c3ccccc3)C[C@H]2C1=O (stereo not given in full)	946
O=C(COc1ccc(Cl)cc1Cl)Nc1c(-c2ccccc2)nc2ccccn12	738
Cc1ccc(NS(=O)(=O)c2cc(-c3[nH]ncc3C(=O)N3CCOCC3)oc2C)cc1C	713
CCN(CC)c1nc2ccsc2c(=O)n1CCC(=O)NCc1ccc(F)cc1	831
Cc1ccc(NC(=O)Cn2c(=O)n(-c3ccccc3)c3ncccc32)c(C)c1	848
Cc1csc(-c2cc(S(=O)(=O)NCCCN3CCOCC3)cn2CC(=O)N2CCCCC2)n1	667

Compound	RP-LC retention time [s]
COc1cccc2sc(NC(=O)c3coc4ccccc4c3=O)nc12	921
Fc1ccc(-c2nnc(Cc3nc(-c4ccc(C(F)(F)F)cc4)no3)o2)cc1	1100
CCn1cnc(S(=O)(=O)N2CCC(C(=O)NC3CCCCC3)CC2)c1	686
Cc1ccc(-c2nnc(-c3cccc(S(=O)(=O)N(C)C)c3)o2)cc1	986
O=C(C1CCCC1)N1CCN(c2cc(-c3ccc(Cl)cc3)[nH]n2)CC1	877
Cc1ccc(-c2[nH]ncc2CN2CCn3c(nn(C)c3=O)C2)cc1C	638
COc1cc(NC(=O)CCc2nc(-c3ccc(N4CCCC4)cc3)no2)cc(OC)c1	1070
Clc1cccc(-c2noc3ncnc(N4CCN(c5ccccn5)CC4)c23)c1	716
O=C1[C@H]2CN(Cc3ccc(F)c(Cl)c3)C[C@H]2C(=O)N1Cc1ccc2c(c1)OCO2	853
COc1cc(NC(=O)CN2C(=O)CN=C(c3ccccc3Cl)c3cc(Cl)ccc32)cc(OC)c1	990
O=C(NC1CCN(c2cc(-c3ccc(F)cc3)[nH]n2)C1)c1ccccc1Br (stereo not given)	668
Cn1c(CCNC(=O)c2cccc(F)c2)nc2cccnc21	611
O=C(Nc1ccc2c(c1)OCCO2)N1CCCC(Cn2cnc3cccnc32)C1 (stereo not given)	637
CCC(c1cccs1)N1C(=O)[C@H]2CN(S(=O)(=O)c3ccc(C)c(C)c3)C[C@H]2C1=O (stereo not given in full)	1070
CSc1cccc(NC(=O)c2cccn2Cc2noc(C)n2)c1	899
O=C(CSc1ccc(-n2ccnc2)nn1)NC1CCCCC1	564
N#Cc1ccc(CN2CCCC2=O)cc1	658
Cc1csc(-c2cc(S(=O)(=O)NCCN3CCCCC3C)cn2CC(=O)N2CCCCC2)n1 (stereo not given)	673

The remaining lines, values ahead:

RP-LC retention time [s]	Compound
586	O=C(NCc1ccccn1)c1c(OCC2CC2)cc(=O)n2c1CCCCC2
617	CC1CCCCN1CCNC(=O)CN1CCc2ccccc2C1C(=O)N1CCCCC1 (stereo not given)
580	CSc1ccccc1CN1CCC(CNC(=O)Nc2c(F)cccc2F)CC1
607	CCCS(=O)(=O)N1CC[C@@H]2CN(Cc3ccccc3)[C@@H]2C1
783	CCOC(=O)CNC(=O)NC(C(=O)N1CCc2ccccc21)C(C)C (stereo not given)
588	CCN(CC)c1ccc(CNC(=O)C2CCc3nc(N4CCOCC4)ncc3C2)cc1 (stereo not given)
725	CC(C)CNC(=O)C1CCCN(c2ncnc3c2oc2ccccc23)C1 (stereo not given)
587	CC(C(=O)N1CCN(c2ccccn2)CC1)N1Cc2ccccc2C1=O (stereo not given)
880	Cc1nc(-c2ccccc2F)sc1C(=O)N1CCCC1
606	Cc1ccc(NC(=O)N2CCc3nc[nH]c3C2)cc1C
1140	CCOC(=O)c1sc(NC(=O)c2ccc([N+](=O)[O-])cc2)nc1-c1ccccc1
883	CC(C)NC(=O)c1cc2c(n(-c3ccc(C(F)(F)F)cc3)c1=O)CCCC2=O
698	CCOc1ccc(NC(=O)c2oc3ccccc3c2C)c2cccnc12
828	Cc1cccc(CNC(=O)Cn2nc(C(=O)N3CCCC3)c3ccccc32)c1
777	Cc1cc2c(cc1S(=O)(=O)N1CCCC1C(=O)Nc1ccccc1)OC(C)C(=O)N2 (stereo not given)
620	CCC(=O)NCc1nc2c(n1CC)CN(C(=O)c1cc(C)cc(C)c1)CC2

RP-LC retention time [s]	Compound
854	CC(C)Cn1cc(CCNC(=O)c2ccccc2C(F)(F)F)c2cccnc21
625	C=CCNC(=O)C(=O)N1CCN(c2ccc(OC)cc2)CC1
783	Cc1cc(-c2ccc(S(=O)(=O)N3CCC(C(=O)NCCC(C)C)CC3)o2)n[nH]1
897	Cc1ccccc1CNC(=O)C1(C)CCCN(C(=O)NCCc2ccccc2)C1 (stereo not given)
1090	CCN(CC)c1nc2cc(C(=O)NCC(C)C)ccc2c(=O)n1Cc1ccccc1
760	CC(C)(C)OC(=O)N1CCN(c2ncc(C(=O)Nc3ccccc3)c(N)n2)CC1
706	CCN1CCn2cc(S(=O)(=O)Nc3ccccc3Cl)cc2C1=O
709	COCCC1CCN(C(=O)c2n[nH]c3ccccc23)CC1
765	CC1(C(=O)NCc2ccc(F)cc2)CCCN(C(=O)NCc2ccco2)C1 (stereo not given)
970	Cc1ccccc1N1C(=O)CN(S(=O)(=O)c2ccccc2)CC1(C)C(=O)NCCC(C)C (stereo not given)
670	CC1CCN(S(=O)(=O)c2ccc(-c3nnc(C(=O)NCCN(C)C)o3)cc2)CC1
574	CC(=O)Nc1ccc(CCc2nc3ccc(C(=O)NC(C)C)cc3[nH]2)cc1
897	CCOC(=O)c1ccc(NC(=O)C23CCC(C)(C(=O)C2)C3(C)C)cc1 (stereo not given)
742	Cc1cc(=O)n(CCc2ccccc2)c(N2CCCC2)n1
582	CC1CCN(CCCNC(=O)C2(O)c3ccccc3NC(=O)N2c2ccc(Cl)cc2)CC1 (stereo not given)
858	Cc1cccc(NS(=O)(=O)c2cc3c(s2)CCN(C(=O)C2CC2)C3)c1C

From the METLIN SMRT retention time set (Domingo-Almenara et al. 2019)
